Source: publication PMC6442743 (Bioorganic & medicinal chemistry letters, 2018)

Columns and labels:
[1] = Water solubility in sodium phosphate buffer; assay type: physicochemical; settings: for fold more soluble in water than 3a: compared with 3a
human sEH = target: T1, human sEH (Homo sapiens, UniProt P34913); assay: sEH inhibition, kinetic fluorescent assay; assay type: biochemical
T1 sequence (P34913 1-555): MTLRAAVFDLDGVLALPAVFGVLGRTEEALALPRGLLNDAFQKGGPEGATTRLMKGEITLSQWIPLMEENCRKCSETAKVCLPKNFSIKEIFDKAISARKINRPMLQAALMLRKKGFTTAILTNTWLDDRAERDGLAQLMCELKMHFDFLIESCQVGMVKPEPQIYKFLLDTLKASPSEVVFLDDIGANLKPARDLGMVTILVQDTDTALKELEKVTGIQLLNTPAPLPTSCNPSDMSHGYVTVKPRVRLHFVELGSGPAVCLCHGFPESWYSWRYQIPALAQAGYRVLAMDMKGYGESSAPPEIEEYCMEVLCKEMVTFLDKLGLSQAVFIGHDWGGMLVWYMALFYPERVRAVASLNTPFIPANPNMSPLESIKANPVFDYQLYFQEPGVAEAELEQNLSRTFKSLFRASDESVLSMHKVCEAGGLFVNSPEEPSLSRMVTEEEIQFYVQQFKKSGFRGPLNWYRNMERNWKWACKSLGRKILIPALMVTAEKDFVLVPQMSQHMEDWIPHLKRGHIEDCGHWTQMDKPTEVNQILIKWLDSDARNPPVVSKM

[2] = compared with 1a, sodium phosphate buffer pH 7.4, 0.1 M, 1% DMSO

S=C(NCCCCCCCCCCNC(=S)NC12CC3CC(CC(C3)C1)C2)NC12CC3CC(CC(C3)C1)C2 [6h]
fold difference in water solubility vs. 6a (decrease) ([1]; compared with 6a (1,2-ethylene spacer)): 3 fold

S=C(NC12CC3CC(CC(C3)C1)C2)NC12CC3CC(CC(C3)C1)C2 [3a, di(adamantan-1yl)thiourea]
fold more water soluble than urea of corresponding structure ([1]; compared with corresponding urea, urea data ref 17 for 3a): 4.7 fold

S=C(NCCNC(=S)NC12CC3CC(CC(C3)C1)C2)NC12CC3CC(CC(C3)C1)C2 [6a]
fold less potent than the rest of thioureas in this series (human sEH; compared with the other dithioureas of series 6): 10–137 fold

CC12CC3CC(C)(C1)CC(NC(=S)Nc1ccc(F)cc1)(C3)C2 [1n]
fold more soluble in water vs. 1a [1, 2]: 4 fold

S=C(NCCc1ccccc1)NC1C2CC3CC(C2)CC1C3 (stereo not drawn) [2c]
fold increase of inhibition potency vs. 2b (human sEH; compared with 2b): 4 fold

S=C(NC1C2CC3CC(C2)CC1C3)NC12CC3CC(CC(C3)C1)C2 (stereo not drawn) [4a]
fold more soluble in water than 3a [1]: 1.8 fold

S=C(Nc1ccc(C23CC4CC(CC(C4)C2)C3)cc1)Nc1ccc(C23CC4CC(CC(C4)C2)C3)cc1 [3j]
fold decrease in inhibition potency vs. 3a (human sEH; compared with 3a): 1367 fold | fold more soluble in water than 3a [1]: 3 fold

CC12CC3CC(C)(C1)CC(NC(=S)Nc1ccccc1)(C3)C2 [1a]
fold more potent than 1b (human sEH; compared with 1b): 2 fold | water solubility (in words) ([1]; sodium phosphate buffer pH 7.4, 0.1 M, 1% DMSO): poorly soluble in water

CCC(CC12CC3CC(CC(C3)C1)C2)NC(=S)Nc1ccccc1 (stereo not drawn) [1c]
fold less potent than 1a (human sEH; compared with 1a): 25 fold

S=C(NCc1ccccc1)NC1C2CC3CC(C2)CC1C3 (stereo not drawn) [2b]
fold increase of inhibition potency vs. 2a (human sEH; compared with 2a): 6.7 fold

S=C(NC1C2CC3CC(C2)CC1C3)NC1C2CC3CC(C2)CC1C3 (stereo not drawn) [compound 5]
fold more soluble in water than 3a [1]: 1.5 fold

CC12CC3CC(C)(C1)CC(NC(=S)NCc1ccccc1)(C3)C2 [1d]
fold decrease in water solubility vs. 1a [1, 2]: 4 fold

S=C(Nc1ccccc1)NC1C2CC3CC(C2)CC1C3 (stereo not drawn) [2a]
fold less potent than its urea analog (human sEH; compared with urea analog): 13 fold
